In ChEMBL document CHEMBL1133702 one finds RAC app data, which are given here for ten compounds.

This test has as its target Estrogen receptor (Ovis aries) (UniProt P49885+Q9TU15).
`C[C@]12C[C@H](c3ccc(OCCI)cc3)[C@@H]3c4ccc(O)cc4CC[C@H]3[C@@H]1CC[C@@H]2O` came in with an RAC app of 10.6.

For `CN(CCCCCOc1ccc([C@H]2C[C@]3(C)[C@@H](O)CC[C@H]3[C@@H]3CCc4cc(O)ccc4[C@H]32)cc1)C(=O)CBr`, the RAC app is 9.7.

`C[C@]12C[C@H](c3ccc(C#CCNC(=O)CCl)cc3)[C@@H]3c4ccc(O)cc4CC[C@H]3[C@@H]1CC[C@@H]2O` registered an RAC app of 14.5.

For the compound `C[C@]12C[C@H](c3ccc(OCCCCCI)cc3)[C@@H]3c4ccc(O)cc4CC[C@H]3[C@@H]1CC[C@@H]2O`, the RAC app stood at 8.23.

Take `C[C@]12C[C@H](c3ccc(OCCOS(C)(=O)=O)cc3)[C@@H]3c4ccc(O)cc4CC[C@H]3[C@@H]1CC[C@@H]2O`: the RAC app was 39.9.

For `CN(CCOc1ccc([C@H]2C[C@]3(C)[C@@H](O)CC[C@H]3[C@@H]3CCc4cc(O)ccc4[C@H]32)cc1)C(=O)CBr`, the RAC app was 4.22.

For `CN(CCOc1ccc([C@H]2C[C@]3(C)[C@@H](O)CC[C@H]3[C@@H]3CCc4cc(O)ccc4[C@H]32)cc1)C(=O)CCl`, the RAC app amounted to 6.96.

Take `C[C@]12C[C@H](c3ccc(OCCCCCNC(=O)CBr)cc3)[C@@H]3c4ccc(O)cc4CC[C@H]3[C@@H]1CC[C@@H]2O`: the RAC app stood at 17.1.

Take `CN(CC#Cc1ccc([C@H]2C[C@]3(C)[C@@H](O)CC[C@H]3[C@@H]3CCc4cc(O)ccc4[C@H]32)cc1)C(=O)CCl`: the RAC app came to 19.4.

As for `C[C@]12C[C@H](c3ccc(OCCNC(=O)CCl)cc3)[C@@H]3c4ccc(O)cc4CC[C@H]3[C@@H]1CC[C@@H]2O`, the RAC app was determined as 3.3.
